pEC50, pIC50: −log10 of the molar value. ≈ marks a conversion by molar mass, not a printed value. Calls of active or inactive are those of the source. No cut-off for these calls is given here.
molecular target: T1, Peroxisome proliferator-activated receptor gamma (Homo sapiens, UniProt P37231); assay: Displacement of Fluormone from PPAR gamma; details: not given
T1 sequence (P37231 whole entry): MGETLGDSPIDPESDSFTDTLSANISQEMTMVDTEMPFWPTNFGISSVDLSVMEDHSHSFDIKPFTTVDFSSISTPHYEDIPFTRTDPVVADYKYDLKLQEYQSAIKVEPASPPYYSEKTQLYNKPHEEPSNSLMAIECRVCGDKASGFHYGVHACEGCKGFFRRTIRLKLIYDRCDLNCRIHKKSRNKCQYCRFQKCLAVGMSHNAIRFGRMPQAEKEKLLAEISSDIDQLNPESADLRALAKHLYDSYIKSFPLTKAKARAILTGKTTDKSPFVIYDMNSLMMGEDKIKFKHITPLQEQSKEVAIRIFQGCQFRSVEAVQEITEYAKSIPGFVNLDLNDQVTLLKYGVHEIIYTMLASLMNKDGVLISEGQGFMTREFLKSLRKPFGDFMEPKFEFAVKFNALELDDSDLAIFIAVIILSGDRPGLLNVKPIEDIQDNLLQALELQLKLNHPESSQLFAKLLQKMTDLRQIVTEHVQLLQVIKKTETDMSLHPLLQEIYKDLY

| pIC50 | SMILES |
| --- | --- |
| 7.10 | O=C(NS(=O)(=O)c1cccc(C(F)(F)F)c1)c1cc2ccccc2n1Cc1cccc(C(F)(F)F)c1 |
| 6.40 | O=C(NS(=O)(=O)c1cccc(C(F)(F)F)c1)c1cc2ccccc2n1Cc1ccc(C(F)(F)F)cc1 |
| 6.48 | CC(C)(C)c1ccc(Cn2c(C(=O)NS(=O)(=O)c3cccc(C(F)(F)F)c3)cc3ccccc32)cc1 |
| 7.22 | COc1ccc(-c2c(C(=O)NS(=O)(=O)c3cccc(C(F)(F)F)c3)n(Cc3cccc(C(F)(F)F)c3)c3ccccc23)cc1 |
| 8.15 | COc1ccc(-c2c(C(=O)NS(=O)(=O)c3ccc(F)cc3)n(Cc3cccc(C(F)(F)F)c3)c3ccccc23)cc1 |
| 6.27 | O=C(NS(=O)(=O)c1cccc(C(F)(F)F)c1)c1cc2cc(O)ccc2n1Cc1cccc(C(F)(F)F)c1 |
| 6.54 | O=C(NS(=O)(=O)c1ccccc1)c1cc2ccccc2n1Cc1cccc(C(F)(F)F)c1 |
| 6.11 | O=C(NS(=O)(=O)c1cccc(C(F)(F)F)c1)c1cc2cc(OCc3ccccc3)ccc2n1Cc1cccc(C(F)(F)F)c1 |
| 6.54 | Cc1ccc(S(=O)(=O)NC(=O)c2cc3ccccc3n2Cc2cccc(C(F)(F)F)c2)cc1 |
| 8.70 | COc1ccc(-c2c(C(=O)NS(C)(=O)=O)n(Cc3cccc(C(F)(F)F)c3)c3ccccc23)cc1 |
| 7.05 | O=C(NS(=O)(=O)c1cccc(C(F)(F)F)c1)c1cc2ccccc2n1Cc1cccc(OC(F)(F)F)c1 |
| 5.03 | O=C(NS(=O)(=O)c1cccc(C(F)(F)F)c1)c1cc2ccccc2n1C(=O)c1cccc(C(F)(F)F)c1 |
| 6.55 | O=C(NS(=O)(=O)c1cccc(C(F)(F)F)c1)c1cc2ccccc2n1Cc1ccccc1 |
| 6.85 | COc1cccc(Cn2c(C(=O)NS(=O)(=O)c3cccc(C(F)(F)F)c3)cc3ccccc32)c1 |
| 6.14 | O=C(NS(=O)(=O)c1ccc(F)cc1)c1cc2ccccc2n1Cc1cccc(C(F)(F)F)c1 |
| 6.17 | CS(=O)(=O)NC(=O)c1cc2ccccc2n1Cc1cccc(C(F)(F)F)c1 |
| 6.42 | O=C(NS(=O)(=O)c1cccc(C(F)(F)F)c1)c1cc2ccccc2n1Cc1cc(Cl)ccc1Cl |
| 5.61 | CCn1c(C(=O)NS(=O)(=O)c2cccc(C(F)(F)F)c2)cc2ccccc21 |
| 8.15 | COc1ccc(-c2c(C(=O)NS(=O)(=O)c3ccccc3C)n(Cc3cccc(C(F)(F)F)c3)c3ccccc23)cc1 |
| 6.74 | Cc1ccccc1S(=O)(=O)NC(=O)c1cc2ccccc2n1Cc1cccc(C(F)(F)F)c1 |
| 6.48 | O=C(NS(=O)(=O)c1cccc(C(F)(F)F)c1)c1cc2cc(Cl)ccc2n1Cc1cccc(C(F)(F)F)c1 |

| SMILES | pIC50 |
| --- | --- |
| O=C(NS(=O)(=O)c1ccc(Cl)s1)c1cc2ccccc2n1Cc1cccc(C(F)(F)F)c1 | 7.10 |
| COC(=O)c1ccccc1S(=O)(=O)NC(=O)c1c(-c2ccc(OC)cc2)c2ccccc2n1Cc1cccc(C(F)(F)F)c1 | 9.00 |
| O=C(NS(=O)(=O)c1cccc(C(F)(F)F)c1)c1cc2ccccc2n1Cc1cccc(OCc2ccccc2)c1 | 7.30 |
| O=C(NS(=O)(=O)c1ccccc1C(F)(F)F)c1cc2ccccc2n1Cc1cccc(C(F)(F)F)c1 | 7.10 |
| O=C(NS(=O)(=O)c1ccc2ccccc2c1)c1cc2ccccc2n1Cc1cccc(C(F)(F)F)c1 | 7.05 |
| O=C(NS(=O)(=O)c1ccc(Cl)cc1)c1cc2ccccc2n1Cc1cccc(C(F)(F)F)c1 | 6.55 |

test system: Osteoblast; assay: Induction of osteoblast differentiation assessed as stimulation of alkaline phosphatase in MC3T3-E1 cells; type: functional, cell-based; details: Mus musculus

| SMILES | pEC50 | Activity |
| --- | --- | --- |
| COc1ccc(-c2c(C(=O)NS(=O)(=O)c3ccccc3)n(Cc3cccc(C(F)(F)F)c3)c3ccccc23)cc1 | 7.00 |  |
| COC(=O)c1ccccc1S(=O)(=O)NC(=O)c1c(-c2ccc(OC)cc2)c2ccccc2n1Cc1cccc(C(F)(F)F)c1 | 6.00 |  |
| O=C(NS(=O)(=O)c1ccc(Cl)cc1)c1cc2ccccc2n1Cc1cccc(C(F)(F)F)c1 | 6.00 |  |
| CN(CCOc1ccc(CC2SC(=O)NC2=O)cc1)c1ccccn1 (configuration not stated) |  | inactive |

test system: not listed separately; assay: Solubility of the compound; type: physicochemical; details: not given

| SMILES | solubility |
| --- | --- |
| COc1ccc(-c2c(C(=O)NS(=O)(=O)c3ccccc3)n(Cc3cccc(C(F)(F)F)c3)c3ccccc23)cc1 | 5 µg/mL (≈ 8.86 µM) |

— ChEMBL document CHEMBL1139678, “Design and synthesis of novel N-sulfonyl-2-indole carboxamides as potent PPAR-gamma binding agents with potential application to the treatment of osteoporosis” (Bioorg Med Chem Lett, 2006)
